{
  "source": "patent US11524044B2",
  "about": "“Strengthening and tumor eliminating traditional Chinese medicine composition, its preparation method and application” (The First Afiliated Hospital Of Guangzhou University Of …, priority 2020, dated 2022)",
  "origin": "cited, not measured here",
  "key": {"[1]": {"test_system": "human colon cancer, liver cancer, gastric cancer, lung cancer and breast cancer related cells"}, "[2]": {"test_system": "ADP induced platelet aggregation"}},
  "data": [
    {"smiles": "COc1cc(O)c(-c2c(O)cc(OC)c3c2ccc2cc(O)ccc23)c2c1-c1ccc(O)cc1CC2", "note": "[Cirrhopetalanthrin]", "values": [
      {"measurement": "cytotoxicity", "setting": "[1]", "result": "moderate cytotoxicity"}
    ]},
    {"smiles": "N#C[C@H](O[C@@H]1O[C@H](CO[C@@H]2O[C@H](CO)[C@@H](O)[C@H](O)[C@H]2O)[C@@H](O)[C@H](O)[C@H]1O)c1ccccc1", "note": "[amygdalin]", "values": [
      {"measurement": "inhibition of ADP induced platelet aggregation", "setting": "[2]", "result": "inhibit ADP induced platelet aggregation in varying degrees"}
    ]}
  ]
}
